One series has as its system NIH3T3 fibroblasts. Briefly: Wound healing (scratch) inhibition test in presence of TGFβ. It counts as cell-based. The settings on record: 1 μM tested compound, 24 h, in presence of TGFβ 5 ng/ml. The method, then: NIH3T3 fibroblasts were seeded at 40 000 cells per cm2 in a 24 well plate, DMEM+10% FBS.
Before wound/treatment, cells were washed twice in DMEM without serum then incubated in the appropriate condition DMEM+2.5% FBS, TGFβ+/−, PST3.1+/−.
TGFβ 5 ng/ml; PST3.1 1 μM, n=6 wells per treatment.
At t0, cell layer is scratched using a needle and observed under microscope to take 3 pictures per well using a scale measure referential to measure width of the scratch using imageJ software.
After 24 h of incubation in the desired condition, scratch is measured under microscope by taking 3 pictures at the same scale using the same referential.
Data are treated by calculating percentage of closing.

Series [1] has as its system SNx rats (renal fibrosis). As to the kind of experiment: Kidney fibrosis model: 5/6 subtotal nephrectomy (SNx) rats, histological and immunohistochemical staining of kidney sections. Format: in vivo, Sprague-Dawley rats. An excerpt:
Male Sprague-Dawley rats underwent ⅚ subtotal nephrectomy (SNx) and were used as the kidney fibrosis model, since SNx rats developed tubulointerstitial fibrosis. During this surgery, the right kidney is removed and 2 of the 3 branches of the left renal artery are ligated in order to necrose ⅔ of the kidney. The control kidney is right kidney before nephrectomy. Tubulointerstitial renal fibrosis inevitably leads to renal function deterioration and failure, independently of the primary renal disease. It is worth noting that in SNx rats, plasmatic creatinine concentration increases from 25.7±1.3 μM to 120.0±33.0 μM. Sirius red staining highlights fibrosis by staining collagens in paraffin-embedded kidney tissue sections. Five micrometer-thick sections were cut and mounted on glass slides. Slides were deparaffinized and stained with Sirius red for evaluation of collagen localization. […] The sections were mounted in Entelan mounting medium and examined under microscope. For each sample, quantification was performed with Image J software on pictures taken from 10 fields of kidney sections at 200-fold magnification. The staining area was measured on kidney section fields. Immunohistochemical analyses of kidney sections were also performed using paraffin sections. The primary antibody, anti-Mgat5 was incubated overnight at 4° C. Revelation was performed with Universal vectastain ABC kit and ImmPACT AE following the instructions of suppliers, Vector Laboratories. Then, the sections were mounted in an aqueous mounting medium, VectaMount™ AQ and examined under microscope (Nikon Eclipse TE300). Quantification was carried out as for histological staining.
Compound 3.1 was orally administered to control rats and SNx rats (as above described) at 20 mg/kg daily per 28 days. A control was carried out with a vehicle (without compound 3.1) administered in the same manner as compound 3.1. Sprague Dawley rats will be used. The rats will be fed ad libitum and will be placed in a 12 hour light, 12 hour dark cycle. They will be divided 3 per cage. Some rats undergo ⅚ subtotal nephrectomy (SNx) to develop chronic kidney failure which will lead to the development of renal fibrosis. The 3.1a treatment was administered to the rats on the day of nephrectomy and continued for the entire protocol. It is delivered as a nanosuspension diluted in drinking water. Control rats receive the solvent alone (placebo). Histological and immunohistochemical methods were monitored as described in example 1.

The test system of a further series is MGAT5 activity. Briefly: L-PHA lectin staining of kidney sections as glycans marker of MGAT5 activity in SNx rats. It counts as in vivo, Sprague-Dawley rats. The settings on record: treated SNx rats, 20 mg/kg daily oral, 4 weeks. An excerpt:
Male Sprague-Dawley rats underwent ⅚ subtotal nephrectomy (SNx) and were used as the kidney fibrosis model, since SNx rats developed tubulointerstitial fibrosis. During this surgery, the right kidney is removed and 2 of the 3 branches of the left renal artery are ligated in order to necrose ⅔ of the kidney. The control kidney is right kidney before nephrectomy. Tubulointerstitial renal fibrosis inevitably leads to renal function deterioration and failure, independently of the primary renal disease. It is worth noting that in SNx rats, plasmatic creatinine concentration increases from 25.7±1.3 μM to 120.0±33.0 μM. Sirius red staining highlights fibrosis by staining collagens in paraffin-embedded kidney tissue sections. Five micrometer-thick sections were cut and mounted on glass slides. […] For each sample, quantification was performed with Image J software on pictures taken from 10 fields of kidney sections at 200-fold magnification. The staining area was measured on kidney section fields. […] Quantification was carried out as for histological staining.
Compound 3.1 was orally administered to control rats and SNx rats (as above described) at 20 mg/kg daily per 28 days. […] Histological and immunohistochemical methods were monitored as described in example 1.
Glycosylation resulting from MGAT5 activity will be specifically measured by L-PHA lectin staining. […]

In series [2] the test system is STAM NASH model mice (liver fibrosis). As to the kind of experiment: STAM NASH model mice, Sirius red-stained liver fibrosis area and tolerability. It counts as in vivo. The settings on record: for Sirius red positive area (fibrosis area) of liver sections: PO 6-9 wks of age, compound 3.1 15 mg/kg BID, Telmisartan 10 mg/kg QD, mean±SD, p<0.01 vs vehicle. An excerpt: The STAM model (developed and standardized by SMC Laboratories, Japan https://www.smccro-lab.com/) is a model that recapitulates the same disease progression as human nonalcoholic steatohepatitis (NASH) and hepatocellular carcinoma (HCC): in 25% of affected patients (i.e. 20%-25% of the adult population), nonalcoholic fatty liver disease progresses to NASH, which increases the risk for the development of cirrhosis, liver failure, and hepatocellular carcinoma. In patients with NASH, liver fibrosis is the main determinant of mortality (https://doi.org/10.1053/j.gastro.2019.11.311). In this model, male C57BL/6 mice aged two days are given a single dose of streptozotocin to reduce insulin secretory capacity. When the mice turn four weeks of age they start a high-fat diet feeding. This model has a background of late type 2 diabetes which progresses into fatty liver, NASH, fibrosis and consequently liver cancer (HCC). Compared to other NASH-HCC model mice, the disease progresses in a relatively short period of time, and liver cancer is developed in 100% of animals at 20 weeks of age.
C57BL/6JJmsSlc mice (14-day-pregnant female) were obtained from Japan SLC, Inc. (Japan). Two days after birth, NASH is induced in male mice by a single subcutaneous injection of 200 μg streptozotocin (STZ, Sigma-Aldrich, USA) solution and feeding with high fat diet (HFD, 57 kcal % fat, Cat #HFD32, CLEA Japan, Inc., Japan) after 4 weeks of age. Sterilized solid HFD is provided ad libitum, and replaced once every 2 days according to the manufacturer's instructions. Then, NASH model mice are divided into 3 randomized groups of 10 mice at 6 weeks of age based on their body weight the day before the start of treatment. The randomization was performed by body weight-stratified random sampling using Excel software. NASH model mice were stratified by their body weight to get SD and the difference in the mean weights among groups as small as possible.
Group 1: Vehicle (10 NASH mice orally administered with Placebo nanosuspension in a volume of 10 mL/kg twice daily from 6 to 9 weeks of age).
Group 2: Compound 3.1 (PST3.1) ((10 NASH mice orally administered with compound 3.1 nanosuspension at a dose of 15 mg/kg in a volume of 10 mL/kg twice daily (2*15 mg/kg/day) from 6 to 9 weeks of age).
Group 3: Telmisartan (10 NASH mice will be orally administered vehicle supplemented with Telmisartan at a dose of 10 mg/kg once daily in a volume of 10 mL/kg from 6 to 9 weeks of age). Vehicle and compound 3.1 were provided by Phost'in Therapeutics SAS. Telmisartan (Micardis®) was purchased from Boehringer Ingelheim GmbH (Germany).
After 3 weeks of treatment mice were sacrificed, whole liver were collected and washed with cold saline. Individual whole liver (parietal side and visceral side) was taken photos. Liver weight were measured and liver-to-body weight ratio were calculated. The left lateral lobes of livers will be separated and dissected as described in FIG. 6, and stored as described below: • a: Liver specimens were stored at −80° C. embedded in Optimal Cutting Temperature (O.C.T., Sakura Finetek Japan, Japan) compound. • b: Liver specimens were fixed in Bouin's solution (Sigma-Aldrich, Japan) for 24 hours. After fixation, these specimens were proceeded to paraffin embedding for Sirius red-staining. • c: Liver specimens were snap frozen in liquid nitrogen and stored at −80° C.
Sections were cut from paraffin blocks of liver tissue using the rotary microtome (Leica Microsystems). […]

Setting [3] is: 15 mg/kg PO BID, 3 weeks of treatment.

With `c1ccc(CN[C@@H]2[C@@H](OCc3ccccc3)[C@H](OCc3ccccc3)[C@@H](COCc3ccccc3)O[P@@]2c2ccccc2)cc1` [Compound 4.6, (2S,3S,4S,5S,6R)-3-(benzylamino)-4,5-bis(benzyloxy)-6-((benzyloxy)methyl)-2-phenyl-1,2-oxaphosphinane], the “% inhibition of wound healing” value in the series on NIH3T3 fibroblasts worked out at 29.3%.

`CC1(C)OC[C@H](C2O[P@](=O)(c3ccccc3)[C@@H](OC(=O)c3ccccc3)[C@H]3OC(C)(C)O[C@@H]23)O1` (stereo partly drawn) [Compound 4.2, (3aR,6R,7R, 7aS)-4-((R)-2,2-dimethyl-1,3-dioxolan-4-yl)-2,2-dimethyl-6-oxido-6-phenyltetrahydro-[1,3]dioxolo[4,5-d][1,2]oxaphosphinin-7-yl benzoate]: the “% inhibition of wound healing” value in the series on NIH3T3 fibroblasts is given as 17.2%.

In the case of `O=[P@@]1(c2ccc(Oc3ccccc3)cc2)O[C@H](COCc2ccccc2)[C@@H](OCc2ccccc2)[C@H](OCc2ccccc2)[C@H]1O` [Compound 3.0, (2S,3S,4S,5S,6R)-4,5-bis(benzyloxy)-6-((benzyloxy)methyl)-3-hydroxy-2-(4-phenoxyphenyl)-1,2-oxaphosphinane 2-oxide], the “% inhibition of wound healing” value with NIH3T3 fibroblasts came out at 23.0%.

Take `CC(=O)N[C@@H]1[C@@H](OCc2ccccc2)[C@H](OCc2ccccc2)[C@@H](COCc2ccccc2)O[P@@]1(=O)c1ccccc1` [Compound 2.2, N-((2S,3S,4S,5S,6R)-4,5-bis(benzyloxy)-6-((benzyloxy)methyl)-2-oxido-2-phenyl-1,2-oxaphosphinan-3-yl)acetamide]: in the series with NIH3T3 fibroblasts, the “% inhibition of wound healing” value was found to be 28.7%.

In the case of `O=[P@@]1(c2ccccc2)O[C@H](COCc2ccccc2)[C@@H](OCc2ccccc2)[C@H](OCc2ccccc2)C1O` (stereo partly shown) [Compound 3.1, 3-Hydroxy-4,5-bis-benzyloxy-6-benzyloxymethyl-2-phenyl-2-oxo-2λ5-[1,2]oxaphosphinane], in series [1] (SNx rats treated, 20 mg/kg daily oral, 4 weeks), the “fibrosis, Sirius red staining area of kidney sections” value came to 5.8±1.2%. Also, the plasma/serum creatinine concentration entry in series [1] (SNx treated rats vs SNx rats on placebo, 20 mg/kg daily oral, at 4 weeks) is given as “lower serum creatinine”. Moreover, the “treatment effect on collagen III in controls” value in series [1] (control (non-nephrectomized) rats, 20 mg/kg daily oral, 4 weeks) was “no treatment effect”. In series [1] (healthy animals or SNx, 4 weeks), the “effect of treatment on fibrosis (Sirius red)” value is given as “no significant effect”. The “collagen I expression, kidney immunostaining” value in series [1] (treated SNx rats, 20 mg/kg daily oral, 4 weeks, p=0.014 vs untreated SNx) came out at 1.3±0.3%. Also, the “collagen IV expression, kidney immunostaining” value in series [1] (treated SNx rats, 20 mg/kg daily oral, 4 weeks, p=0.015 vs untreated SNx) worked out at 6.4±0.3%. Moreover, the “collagen III level, kidney immunostaining” value in series [1] (treated SNx rats, 20 mg/kg daily oral, 4 weeks, p=0.27 vs untreated SNx) was 4.0±0.3%. Moreover, the “PHA-L staining of kidney sections” value in the series with MGAT5 activity came out at 5.1±0.5%. In addition, in the series with NIH3T3 fibroblasts, the “% inhibition of wound healing” value came out at 42.0%. Further, in series [2] (setting [3]), the body weight loss entry is “no body weight loss”, the clinical signs entry is “no clinical signs” and the death entry is listed as “no death”. Also, in series [2], the “Sirius red positive area (fibrosis area) of liver sections” value stood at 0.47±0.12%.

Turning to `CC1(C)OC[C@H](C2O[P@@](=O)(c3ccccc3)[C@H](NCc3ccccc3)[C@H]3OC(C)(C)O[C@@H]23)O1` (stereo partly drawn) [Compound 3.3, (3aR,6S,7S,7aS)-7-(benzylamino)-4-((R)-2,2-dimethyl-1,3-dioxolan-4-yl)-2,2-dimethyl-6-phenyltetrahydro-[1,3]dioxolo[4,5-d][1,2]oxaphosphinine 6-oxide], the “% inhibition of wound healing” value in the series on NIH3T3 fibroblasts was 29.8%.

Regarding `CCCc1nc2c(C)cc(-c3nc4ccccc4n3C)cc2n1Cc1ccc(-c2ccccc2C(=O)O)cc1` [Telmisartan, reference compound], in series [2], the “Sirius red positive area (fibrosis area) of liver sections” value is 0.50±0.24%.

The record behind these values is patent US20240082271A1, “Methods of Treatment of Fibrotic Diseases” (PHOST’IN THERAPEUTICS, priority 2021, published 2024).
